Test results taken from patent US20050032863A1, “Method of treating or preventing central nervous system disorders with compounds having selectivity for the alpha 3 subunit of the benzodiazepine receptor” (priority 2003, published 2005).
“And” between values parts separate entries of the source, which are not always exact repeats. Identical values can stand only once.

How the values were obtained:
[1] = target: T1, recombinant rat α3β2γ2 GABAA receptors (Rattus norvegicus, UniProt P20236); assay: Whole-cell patch-clamp, modulation of GABA (EC20)-induced currents in transfected HEK 293 cells, α3β2γ2; type: cell-based
T1 construct: expressed in transfected cells; host or cells: HEK 293
T1 sequence (P20236 29-493): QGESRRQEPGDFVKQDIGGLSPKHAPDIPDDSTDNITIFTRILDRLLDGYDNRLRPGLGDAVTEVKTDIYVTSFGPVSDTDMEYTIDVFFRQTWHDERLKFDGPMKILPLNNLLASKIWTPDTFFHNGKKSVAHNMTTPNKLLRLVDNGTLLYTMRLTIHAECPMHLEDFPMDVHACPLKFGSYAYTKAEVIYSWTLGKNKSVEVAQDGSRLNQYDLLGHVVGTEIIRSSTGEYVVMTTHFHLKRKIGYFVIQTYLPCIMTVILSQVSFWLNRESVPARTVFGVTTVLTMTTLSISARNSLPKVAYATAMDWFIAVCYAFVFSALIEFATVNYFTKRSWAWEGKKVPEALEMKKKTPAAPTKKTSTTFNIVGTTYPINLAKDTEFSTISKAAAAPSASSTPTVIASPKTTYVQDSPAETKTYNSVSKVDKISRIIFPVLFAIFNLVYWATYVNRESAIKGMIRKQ
Method: (§1) For electrophysiological recording HEK-293 cells were passaged and replated on 12-mm glass coverslips located in 9.6-cm plastic dishes filled with 10 ml of Minimum Essential Medium (MEM, Gibco) supplemented with 158 mg/l sodium bicarbonate, 2 mM glutamine (Gibco), 100 U/ml penicillin-streptomycin (Gibco), and 10% foetal calf serum (Gibco). Cultures were maintained at 37° C. in a humidified […]/5% CO2 atmosphere for 2-3 days.
(§2) Transfection with recombinant rat GABAA receptors was carried out as described in detail (Korpi and Lüddens, 1993, Lüddens and Korpi, 1995b). Briefly, HEK 293 cells were transfected in triple combinations using the phosphate precipitation method with rat GABAA receptor cDNAs in eukaryotic expression vectors (Pritchett, 1990) for the α, β and γ subunits. For optimal receptor expression, final concentrations (μg vector DNA per 9.6 cm tissue culture plate) were: α1, 2; α2 4.8; α3, 1.2; α4, 10; α5, 0.8; β2, 0.4; and γ2S, 0.3. The γ2S variant is abbreviated γ2 in the remainder of the text. To identify transfected cells all subunit combinations were co-transfected with 1 μg per plate of pNI-EGFP.
(§3) Two days after transfection single coverslips containing HEK 293 cells were placed in a recording chamber mounted on the movable stage of a fluorescence microscope (Olympus IX70) and perfused with a defined saline solution containing (in mM): 130 NaCl, 5.4 KCl, 2 CaCl2, 2 MgSO4, 10 glucose, 5 sucrose, and 10 HEPES (free acid), pH adjusted to 7.35 with about 35 mM NaOH. Transfected cells were identified by their green fluorescence due to the expression of the pNI-EGFP vector and ligand-mediated membrane currents of these cells were studied in the whole-cell configuration of the patch-clamp technique (Hamil et al., 1981). Patch-clamp pipettes were pulled from hard borosilicate capillary glass (0.5 mm ID, 1.5 mm OD, Vitrex, Science Products GmbH, Hofheim, Germany) using a horizontal puller (Sutter Instruments, CA, Model P-97) in a multi-stage process.
(§4) Seal resistances >1 GΩ were routinely obtained by applying gentle suction to the pipettes. Membrane rupture was monitored electrically as an increase in capacity. Pipette capacitance, membrane capacitance, and series resistance were electronically compensated to achieve minimal capacitative transients. A series resistance compensation of >60% was regularly used.
(§5) In all cells recorded the presence of the γ2 subunit in the heteropentamere was monitored by the application of 1 μM zolpidem plus the EC20 of GABA before testing the experimental drugs.
(§6) Responses of the cells were recorded by a patch-clamp amplifier (EPC-8, HEKA-Electronic, Lambrecht, Germany) in conjunction with a standard personal computer and the pClamp 8.1 software package (Axon Instruments, Foster City, Calif.). The standard holding-potential for the cells was −40 mV. Whole cell currents were low-pass filtered by an eight-pole Bessel filter at 5 or 3 kHz before being digitised by a Digidata 1322A interface (Axon Instruments, Foster City, Calif.) and recorded by the computer at a sampling rate of at least […].
(§7) Efficacy, potency, and GABAA receptor a subunit specificity of the new compound ELB139 was tested with the whole cell configuration of the patch-clamp technique by applying increasing drug concentration together with GABA of the approximate EC20 on green fluorescing cells. BZ binding site specificity of the new compound was tested on the same cells in an identical experimental setting with additionally applying 10 μM Ro15-1788.

[2] = target: T2, recombinant rat α5β2γ2 GABAA receptors (Rattus norvegicus, UniProt P19969); assay: Whole-cell patch-clamp, modulation of GABA (EC20)-induced currents in transfected HEK 293 cells, α5β2γ2; type: cell-based
T2 construct: expressed in transfected cells; host or cells: HEK 293
T2 sequence (P19969 32-464 limits assumed): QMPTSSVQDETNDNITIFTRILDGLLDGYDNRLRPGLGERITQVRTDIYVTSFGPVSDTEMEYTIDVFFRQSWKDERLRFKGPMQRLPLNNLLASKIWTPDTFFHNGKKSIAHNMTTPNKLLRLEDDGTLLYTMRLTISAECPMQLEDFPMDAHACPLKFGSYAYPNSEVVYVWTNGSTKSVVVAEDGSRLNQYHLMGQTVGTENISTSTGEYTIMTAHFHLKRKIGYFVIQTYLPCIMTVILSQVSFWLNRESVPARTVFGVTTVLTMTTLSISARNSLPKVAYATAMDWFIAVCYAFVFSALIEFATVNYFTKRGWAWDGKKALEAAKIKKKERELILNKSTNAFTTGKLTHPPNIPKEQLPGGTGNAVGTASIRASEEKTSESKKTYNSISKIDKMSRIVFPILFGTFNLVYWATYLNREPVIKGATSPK
Method: as §1, §2, §3, §4, §5, §6, §7

[3] = test system: dt^sz mutant Syrian golden hamsters; assay: Genetic hamster model of paroxysmal dystonia, triple stimulation; type: in vivo, Syrian golden hamster
Method: Drug testing was performed at the maximal sensitivity of the hamsters for induction of dystonic attacks, i.e. between 30 and 40 days of age. Dystonic attacks were induced by a triple stimulation technique: The hamsters were taken from their home cage and placed on a balance (to determine body weight), were then injected i.p. with saline (control) or drug, and immediately placed individually in a new and empty plastic cage. Dystonic attacks started within a few minutes after placing the hamsters in the new plastic cage.
The final stage persisted for two to five hours, but rapid recovery occurred thereafter.
A first group of animals (n=8) was tested for ocurrence and severity of dystonic attacks at the age of 32-33 days after administration of vehicle (i.p.) as well as after performing the triple stimulation procedure as described above. Two or three days later, the same animals received E131-00139 i.p. and were again observed for 3 hours and again 2-3 days later the animals were re-tested after vehicle administration to serve as post dose control. […] The first stack represents the first hour of observation statring with drug administration, the second stack of bars represents the second hour of observation and the third stack the third hour.
The first (open) bar represents the control response of the animals recorded 2-3 days prior to the drug test, the black bar represents the results obtained after drug administration and the third (gray) bar represents the post drug control tested 2-3 days after the drug administration. The pre-and post test was used to exclude that a reduction of severity of stages was only due to a reduction in sensitivity for the induction of dystonic attacks is age dependent.

O=C1N=C(N2CCCCC2)CN1c1ccc(Cl)cc1 [ELB139, 1-(4-chlorophenyl)-4-piperidinoimidazolin-2-one]
concentrations at which positive current modulation was observable ([1]; α3-containing receptors): above 30 nM | highest efficacy / maximal stimulation of GABA-induced current ([1]; α3-containing receptors, ELB139 at concentrations above 0.3 μM, diazepam at 1 μM): 1.3±0.07 fold and 1.3 fold | effect of 10 μM Ro15-1788 on the current enhancement by the compound ([1]; α3β2γ2, co-applied 10 μM Ro15-1788 (flumazenil)): completely abolished | Potentiation* (ELB139) ([1]; α3β2γ2, with GABA EC20, graphically determined): 1.3 ± 0.07 | EC50 ([1]; α3β2γ2, with GABA EC20, value marked * = graphically determined, read-out: EC50 (ELB139)): 0.06 µM | EC50 ([2]; applied with approximate GABA EC20, read-out: EC50 (ELB139)): 3.6 µM | effect of 10 μM Ro15-1788 on the current enhancement by the compound ([2]; co-applied 10 μM Ro15-1788 (flumazenil)): completely abolished | maximal positive modulation of GABA-induced current ([2]; maximum at 30 μM (ELB139), at 1 μM (diazepam)): 1.4±0.06 fold and 1.4 fold | Potentiation* (ELB139) ([2]; with GABA EC20, graphically determined): 1.4 ± 0.06 | antidystonic activity ([3]; 5 mg/kg i.p.): still a significant antidystonic activity was present | tolerability and sedation ([3]; 10 mg/kg i.p.): well tolerated and no sedation was observed | severity of the dystonic attack ([3]; 10 mg/kg i.p., total observation period 3 h): significantly reduced
